The values that follow come from patent US20260159486A1, “BENZO[H]QUINAZOLINE-4-AMINE DERIVATIVES FOR THE TREATMENT OF CANCER” (Redona Therapeutics, Inc., priority 2021, published 2026).

Series [1] has as its system MDA-MB-231 cells. The series can be described thus: MDA-MB-231 proliferation assay. The class given is cell-based. The conditions noted are these: Homo sapiens, MDA-MB-231, 72 h, YO-PRO-1 Iodide readout. A digest of the protocol: (§1)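 Cells seeded at 750 per well, treated next day for 72 h at 37 °C with 0.5% final DMSO. Cell number read by YO-PRO-1 fluorescence after lysis, normalized to DMSO (100%) and time-zero cells (0%). GI50 from 4-parameter logistic fit, maximum constrained to 100%.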

Series [2] concerns CAL-51 cells. The series can be described thus: CAL-51 proliferation assay. The class given is cell-based. The conditions noted are these: Homo sapiens, CAL-51, 72 h, YO-PRO-1 Iodide readout. A digest of the protocol: as §1
A short description of series [3]: Body weight changes in SW480 xenograft study. The class given is in vivo, NOD/SCID mice. The conditions noted are these: day-17; oral BID*BIW, 45 mg/kg days 1-10, 50 mg/kg days 11-22. The procedure: NOD/SCID mice of circa 23 g of weight were inoculated with 1×10^7 SW480 human colorectal cancer cells in 50% Matrigel™ subcutaneously in a flank. A pair match was performed when tumors reached an average volume of 100-150 mm^3 to distribute animals into treatment group and vehicle control (n=8/group). Tumor volumes (expressed in mm^3) were measured twice weekly using a caliper on days 1, 4, 8, 11, 15, 18, 22 and 23 of the treatment period. (A) The average TVol (±standard error of mean (SEM)) of each treatment group are shown. […] (B) Changes in BW in percentage (expressed in g, ±SEM) on days 1, 4, 8, 11, 15, 18, 22 and 23 of the treatment period. (C) Changes in vehicle- and Example 13-treated TVol expressed in mm^3. TVol ratio of Example 13-treated vs vehicle control (T/C) is indicated.
Female 8-9 weeks of age NOD/SCID mice of about 23 g of weight were used for the study (Jiangsu GemPharmatech Co., Ltd). Mice were inoculated subcutaneously in the flank region with 1×10^7 SW480 cells in PBS mixed with Matrigel™ (1:1) in a final injection volume of 0.2 mL/mouse. Once tumors reached an average size of 100-150 mm^3, a pair match was carried out to distribute mice to the different treatment groups. […]
Tumor volumes (expressed in mm^3) were measured in two dimensions using a caliper on days 1, 4, 8, 11, 15, 18, 22 and 23 of the treatment period. […]

The term GI50 denotes the concentration at which growth is held to half of that of the control.

Turning to `COCCN(C)c1c(O[C@H]2CC[C@H](N)CC2)ccc2c1CC(C)(C)c1c(N)ncnc1-2` [Example 13, 8-(trans-4-aminocyclohexoxy)-N7-(2-methoxyethyl)-N7,5,5-trimethyl-6H-benzo[h]quinazoline-4,7-diamine], the GI50 in series [1] is 100 to 2000 nM; in series [2] it was < 100 nM. For the same molecule, the “maximal body weight loss” value in series [3] came out at 5%.
